Data published in patent US12446495B2, “Injection systems, injection tools and methods for same” (Invaio Sciences International GmbH, priority 2018, dated 2025).

Assay: Distribution of test substance within plants after trunk injection
Type: in vivo
Conditions: solution comprising 2% Brilliant Blue E 133 injected; trees felled and cut in pieces; over 24 hours
Excerpt: The trunk injection devices have been tested regarding the use with different types of trunks, the speed of absorption, distribution of product within the plant, and the continuing usage of an injection device within a trunk. The injection devices have been tested with trunks with a diameter between 2 cm and 30 cm. The tests have been conducted with box, vine, hazelnut, walnut, maple, beach and oak. Further, trees such as date palm, citrus tree, and banana tree would be suitable as well.′ Speed of absorption is influenced by factors such as weather, season, time of day and injection pressure. Within tests conducted under ideal conditions, an injection pressure of 2.5 bars, and 10 ml of test substance, absorption times below 2 minutes have been achieved.
Distribution within plants has been tested injecting a solution comprising 2% Brilliant Blue E 133 (CAS reg. No. 3844-45-9.) as a test substance. Trees have afterwards been felled and cut in pieces to analyze the distribution of the test substance over time within the plant. The test substance did typically distribute over 5 meters within the stem over 24 hours.

Structure (SMILES): CCN(Cc1cccc(S(=O)(=O)[O-])c1)c1ccc(C(=C2C=CC(=[N+](CC)Cc3cccc(S(=O)(=O)[O-])c3)C=C2)c2ccccc2S(=O)(=O)[O-])cc1.[Na+].[Na+] [Brilliant Blue E 133]
- distribution of the test substance within the stem: ~5 meters
